Assay results as given in patent US20100197628A1, “METHODS OF TREATING PSYCHIATRIC, SUBSTANCE ABUSE, AND OTHER DISORDERS USING COMBINATIONS CONTAINING OMEGA-3 FATTY ACIDS” (priority 2003, published 2010).
Entries after “also recorded” stand apart in the source; their conditions may differ.

Legend:
[1] = system: rats; test: Locomotor activity after cytidine; format: in vivo, rat; conditions: 238 mg/kg, IP (optimally effective dose)
[2] = system: rats; test: Conditioned rewarding effects of cytidine; format: in vivo, rat; conditions: 238 mg/kg, IP
[3] = system: rats; test: Forced swim test (FST) with citicoline, cytidine and choline; format: in vivo, rat; conditions: IP; for antidepressant effects in the FST: citicoline 50-500 mg/kg, cytidine 23.8-238 mg/kg, choline 13.7-136.6 mg/kg (molar equivalent amounts)
Experimental: The effects of citicoline were examined in the forced swim test (FST), a rodent model of depression as described herein. Because citicoline is rapidly converted to cytidine and choline, their effects were also examined in the FST.
Forced Swim Test (FST): One hundred-sixty seven rats were used in the FST studies, which were conducted as described previously (Carlezon et al. Biol. Psychiatry 51:882-889, 2002) with minor modifications. The FST is a two-day procedure in which rats swim under conditions in which escape is not possible. On the first day, rats are placed in clear, 65 cm tall-25 cm diameter cylinders filled to 48 cm with 25° C. water. The rats initially struggle to escape from the water, but eventually they adopt a posture of immobility in which they make only the movements necessary to keep their heads above water. After 15 min of forced swimming, the rats are removed from the water, dried with towels, and placed in a warmed enclosure for 30 min. The cylinders are emptied and cleaned between rats. When the rats are re-tested 24 hours later under identical conditions in 5 min sessions, immobility is increased. Treatment with standard antidepressant drugs within the 24 hr period between the first exposure to forced swimming and re-testing can attenuate facilitated immobility, an effect correlated with antidepressant efficacy in humans (Porsolt et al. Nature 266:730-732 1977; Detke et al. Psychopharmacology 121:66-72 1995, Carlezon et al. Biol. Psychiatry 51:882-889, 2002).

[4] = system: depressed subjects; test: 17-item Hamilton Depression Rating Scale (HDRS), eight weeks of treatment; format: in vivo, human
Experimental: (§1) In a second study, twelve depressed subjects (mean age 40) received 500 mg of an oral formulation of CDP-choline twice daily for eight weeks.

[5] = system: brain phosphodiesters; test: Phosphorus-31 MR spectroscopy of lipid metabolite resonances during chronic CDP-choline administration; format: in vivo, human; conditions: 18 healthy subjects, mean age 70; 500 mg oral daily for 6 weeks, weeks 6-12 half continued, half placebo; p=0.008
Experimental: (§2) To assess whether chronic CDP-choline administration leads to detectable changes in lipid metabolite resonances in phosphorus-31 MR spectra, eighteen healthy subjects (mean age: 70) were administered 500 mg of an oral formulation of CDP-choline daily for a six week period. From weeks 6 to 12, half of the subjects continued to receive CDP-choline and half received placebo in a double-blind fashion. […] CDP-choline administration, therefore, improves measures of verbal fluency and spatial memory in healthy adults and results in increased brain phospholipid synthesis in older adults, particularly during chronic administration.

[6] = cited from earlier work
[7] = system: healthy subjects; test: Neuropsychological testing during chronic CDP-choline administration; format: in vivo, human; conditions: across all subjects at week twelve, 500 mg oral daily
Experimental: as §2

[8] = system: cytosolic choline resonance in the anterior cingulate cortex; test: Proton MR spectroscopy of cytosolic choline resonance; format: in vivo, human; conditions: associated with a successful response; 500 mg twice daily, eight weeks
Experimental: as §1

[9] = ingestion of large amounts in preclinical studies; cited from earlier work
[10] = Weights of the rats at the time of the re-test; format: in vivo, rat; conditions: FST studies
Experimental: Rats: A total of 197 male Sprague-Dawley rats (Charles River Laboratories, Boston Mass.) were used in these studies. The rats were housed in groups of four and weighed 325-375 gm at the time of behavioral testing. Rats were maintained on a 12 h light (0700-1900 h)-12 h dark cycle with free access to food and water except during testing. Experiments were conducted in accordance with the 1996 Guide for the Care and Use of Laboratory Animals (NIH) and McLean Hospital policies.

[11] = system: male Sprague-Dawley rats; test: Forced swim test (FST): latency to become immobile and behavioral sampling; format: in vivo, rat; conditions: re-test
Experimental: The behavioral effects of the combination of uridine and omega-3 fatty acids were also evaluated in rats using the forced swim test (FST). This assay identifies in rodents treatments that have antidepressant effects in humans (Porsolt et al. Nature 266:730-732 1977; Carlezon et al. Biol. Psychiatry 51:882-889, 2002). Uridine was administered using systemic injection while omega-3 fatty acids were administered by supplementation within the diet for various periods of time (3, 10, or 30 days). The effects of uridine in rats maintained on the omega-3 fatty acid-enriched diet were also evaluated to determine if these effects were additive. […] The efficacy of each treatment in the FST was evaluated using two separate scoring methods: latency to become immobile, a simple and rapid method that identifies agents with antidepressant effects ([…] et al. J Neurosci 21:7397-7403 2001), and behavioral sampling, a more complex method that differentiates antidepressant drugs according to their pharmacological mechanisms (Detke et al. Psychopharmacology 121:66-72 1995). Finally, treatments with antidepressant-like effects in the FST were evaluated for non-specific effects on activity in an open field, which might complicate interpretation of the data from the swimming studies. Rats: A total of 197 male Sprague-Dawley rats (Charles River Laboratories, Boston Mass.) were used in these studies. The rats were housed in groups of four and weighed 325-375 gm at the time of behavioral testing. Rats were maintained on a 12 h light (0700-1900 h)-12 h dark cycle with free access to food and water except during testing. Experiments were conducted in accordance with the 1996 Guide for the Care and Use of Laboratory Animals (NIH) and McLean Hospital policies. Drugs: Dosages of desipramine HCl (DMI), fluoxetine HCl (FLX), citalopram HBr (CIT), and uridine (URI) were administered in a distilled water vehicle (VEH) at a volume of 1 cc/kg. All drugs were purchased from RBI-Sigma (St. Louis, Mo.) except CIT, which was a gift of Forest Laboratories (New York, N.Y.). […] The diets were equivalent in overall fat, protein, carbohydrate, and caloric content. Forced Swim Test (FST): One hundred-sixty seven rats were used in the FST studies, which were conducted as described previously (Carlezon et al. Biol. Psychiatry 51:882-889, 2002) with minor modifications. The FST is a two-day procedure in which rats swim under conditions in which escape is not possible. On the first day, rats are placed in clear, 65 cm tall-25 cm diameter cylinders filled to 48 cm with 25° C. water. The rats initially struggle to escape from the water, but eventually they adopt a posture of immobility in which they make only the movements necessary to keep their heads above water. After 15 min of forced swimming, the rats are removed from the water, dried with towels, and placed in a warmed enclosure for 30 min. The cylinders are emptied and cleaned between rats. When the rats are re-tested 24 hours later under identical conditions in 5 min sessions, immobility is increased. Treatment with standard antidepressant drugs within the 24 hr period between the first exposure to forced swimming and re-testing can attenuate facilitated immobility, an effect correlated with antidepressant efficacy in humans (Porsolt et al. Nature 266:730-732 1977; Detke et al. Psychopharmacology 121:66-72 1995, Carlezon et al. Biol. Psychiatry 51:882-889, 2002). Rats tested with DMI, FLX, CIT, or URI received 3 separate intraperitoneal (IP) injections of drug (or VEH), at 1 hr, 19 hr, and 23 hr after the first exposure to forced swimming. This commonly used regimen is sensitive to the antidepressant-like effects of many standard agents (Porsolt et al. Nature 266:730-732 1977; Detke et al. Psychopharmacology 121:66-72 1995; Carlezon et al. Biol. Psychiatry 51:882-889, 2002). […] There were 7-12 rats per treatment condition, and separate rats were used for each treatment regimen. […]

[12] = eight weeks, CDP-choline 500 mg twice daily, fluoxetine 20 mg/day

Nc1ccn([C@@H]2O[C@H](CO)[C@@H](O)[C@H]2O)c(=O)n1 [cytidine]
locomotor activity [1]: did not affect locomotor activity | conditioned rewarding effects [2]: did not affect locomotor activity or establish conditioned rewarding effects | antidepressant effects in the FST [3]: significant antidepressant effects

C[N+](C)(C)CCOP(=O)(O)OP(=O)([O-])OC[C@H]1O[C@@H](n2ccc(N)nc2=O)[C@H](O)[C@@H]1O [CDP-choline, cytidine 5′-diphosphocholine]
mean 17-item HDRS score with eight weeks of treatment ([4]; CDP-choline 500 mg oral twice daily, fluoxetine open label 20 mg/day, p<0.0001): 10±7 | mean 17-item HDRS score before treatment ([4]; baseline, CDP-choline 12 subjects, fluoxetine 41 subjects): 21±3 | complete responses (subjects/total) [4, 12]: 6/12 | complete responses, share of subjects [4, 12]: 50% | brain phosphodiesters (phosphorus-31 MR) [5]: significant increase | CDP-choline and/or its metabolites absorbed ([6]; orally administered): more than 99% | excreted in feces ([6]; orally administered): less than 1% | excretion route lung ([6]; share of dose): 12.9% | excretion route urine ([6]; share of dose): 2.4% | rest of the dose metabolized and retained in tissues ([6]; share of dose): 83.9% | visuospatial learning ([7]; p=0.0001): increases | verbal learning ([7]; p=0.003): increases | verbal fluency ([7]; p=0.07): increases | antidepressant effects in the FST [3]: did not have antidepressant effects | effect in the FST at high doses ([3]; high doses of citicoline): small pro-depressant effects | proton MR spectroscopic cytosolic choline resonance in the anterior cingulate cortex [8]: reduction | toxicity symptoms [9]: common cholinergic symptoms

O=c1ccn([C@@H]2O[C@H](CO)[C@@H](O)[C@H]2O)c(=O)[nH]1 [URI, uridine]
weights of the rats [10]: did not affect | latency to become immobile ([11]; URI 71.7 mg/kg IP): not | latency to become immobile ([11]; URI 130 mg/kg IP): not | immobility ([11]; URI 239 mg/kg IP): reduced immobility | latency to become immobile ([11]; URI 239 mg/kg IP): increased latencies | swimming behaviors ([11]; URI 239 mg/kg IP): increased swimming behaviors | latency to become immobile, effect over doses ([11]; URI alone 71.7, 130, 239 mg/kg IP): dose-dependent effects; also recorded: dose-dependently increased latencies to become immobile | occurrences of climbing ([11]; URI alone 71.7-239 mg/kg IP): without affecting climbing | occurrences of immobility, effect over doses ([11]; URI alone 71.7-239 mg/kg IP): significantly affected; also recorded: dose-dependently decreased immobility | occurrences of swimming, effect over doses ([11]; URI alone 71.7-239 mg/kg IP): significantly affected; also recorded: increased swimming
